Source: PubChem BioAssay AID2060491 (Molecular Pharmacology Branch, DTP, NCI, 2025)

Tested on: 857933-349-R-J2-PDC complex spheroids, viability
Experiment: Anticancer human tumor 857933-349-R-J2-PDC patient-derived colon adenocarcinoma cell line growth inhibition [GQUAD]
Details: for IC50: curve of first compound; for viability, T/C: stronger effect = lower value; active means viability on the fitted dose curve at most 10% of control; inactive means the rest
Outline: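 Multi-cell-type spheroids of tumor cells with HUVEC and mesenchymal stem cells, treated with drug combinations. Concentrations descend in half-log steps from near clinical Cmax, or from 10 microM where Cmax is unknown; viability read-out.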

[1] = second compound 0.0316 µM, first compound 0.0316 µM
[2] = second compound 0.0316 µM, first compound 0.1 µM
[3] = second compound 0.0316 µM, first compound 0.316 µM
[4] = second compound 0.0316 µM, first compound 1 µM
[5] = second compound 0.0316 µM, first compound 3.16 µM
[6] = second compound 0.0316 µM, first compound 10 µM
[7] = second compound 0.1 µM, first compound 0.0316 µM
[8] = second compound 0.1 µM, first compound 0.1 µM
[9] = second compound 0.1 µM, first compound 0.316 µM
[10] = second compound 0.1 µM, first compound 1 µM
[11] = second compound 0.1 µM, first compound 3.16 µM
[12] = second compound 0.1 µM, first compound 10 µM
[13] = second compound 0.316 µM, first compound 0.0316 µM
[14] = second compound 0.316 µM, first compound 0.1 µM
[15] = second compound 0.316 µM, first compound 0.316 µM
[16] = second compound 0.316 µM, first compound 1 µM
[17] = second compound 0.316 µM, first compound 3.16 µM
[18] = second compound 0.316 µM, first compound 10 µM
[19] = second compound 1 µM, first compound 0.0316 µM
[20] = second compound 1 µM, first compound 0.1 µM
[21] = second compound 1 µM, first compound 0.316 µM
[22] = second compound 1 µM, first compound 1 µM
[23] = second compound 1 µM, first compound 3.16 µM
[24] = second compound 1 µM, first compound 10 µM
[25] = second compound 3.16 µM, first compound 0.0316 µM
[26] = second compound 3.16 µM, first compound 0.1 µM
[27] = second compound 3.16 µM, first compound 0.316 µM
[28] = second compound 3.16 µM, first compound 1 µM
[29] = second compound 3.16 µM, first compound 3.16 µM
[30] = second compound 3.16 µM, first compound 10 µM
[31] = second compound 10 µM, first compound 0.0316 µM
[32] = second compound 10 µM, first compound 0.1 µM
[33] = second compound 10 µM, first compound 0.316 µM
[34] = second compound 10 µM, first compound 1 µM
[35] = second compound 10 µM, first compound 3.16 µM
[36] = second compound 10 µM, first compound 10 µM
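Further: spheroids exposed to compounds for one week before readout.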
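Wherever viability, T/C is given: percent viability relative to vehicle DMSO wells taken as 100%.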

CC(=O)O[C@H]1C(=O)[C@@]2(C)[C@H]([C@H](OC(=O)c3ccccc3)[C@]3(O)C[C@H](OC(=O)[C@H](O)[C@@H](NC(=O)c4ccccc4)c4ccccc4)C(C)=C1C3(C)C)[C@]1(OC(C)=O)CO[C@@H]1C[C@@H]2O + Cc1[nH]c2ccc(F)cc2c1-c1nc2c3cccnc3c3ncccc3c2[nH]1
32.9 nM: IC50 (second compound 1 µM)
39.5 nM: IC50 (second compound 3.16 µM)
41.3 nM: IC50 (second compound 0.316 µM)
inactive: viability, T/C [1] 43.9% | viability, T/C [2] 16.9% | viability, T/C [3] 11.6% | viability, T/C [4] 11.4% | viability, T/C [5] 11.1% | viability, T/C [6] 12.6% | viability, T/C [7] 44.9% | viability, T/C [8] 17.1% | viability, T/C [9] 11.4% | viability, T/C [10] 11.8% | viability, T/C [11] 12.7% | viability, T/C [12] 13.1% | viability, T/C [13] 59.8% | viability, T/C [14] 17.8% | viability, T/C [15] 10.8% | viability, T/C [16] 11% | viability, T/C [17] 12.8% | viability, T/C [18] 13.5% | viability, T/C [19] 51.2% | viability, T/C [20] 17.7% | viability, T/C [21] 11.8% | viability, T/C [22] 12.3% | viability, T/C [23] 14.2% | viability, T/C [24] 12.4% | viability, T/C [25] 58% | viability, T/C [26] 16.6% | viability, T/C [27] 14.5% | viability, T/C [28] 12.8% | viability, T/C [29] 15% | viability, T/C [30] 16.4% | viability, T/C [31] 43.2% | viability, T/C [32] 17.1% | viability, T/C [33] 14% | viability, T/C [34] 13.3% | viability, T/C [35] 16.7% | viability, T/C [36] 16.2%
< 31.6 nM: IC50 (second compound 0.0316 µM) | IC50 (second compound 0.1 µM) | IC50 (second compound 10 µM)

CC1COCCN1c1cc(C2(S(C)(=N)=O)CC2)nc(-c2ccnc3[nH]ccc23)n1 (stereo unspecified) + CN(C)c1ccc(Nc2c3ccc(NC(=O)CCN4CCCC4)cc3nc3cc(NC(=O)CCN4CCCC4)ccc23)cc1
> 10000 nM: IC50 (second compound 0.0316 µM) | IC50 (second compound 0.1 µM) | IC50 (second compound 0.316 µM) | IC50 (second compound 1 µM) | IC50 (second compound 3.16 µM) | IC50 (second compound 10 µM)
inactive: viability, T/C [1] 104% | viability, T/C [2] 108% | viability, T/C [3] 102% | viability, T/C [4] 87.7% | viability, T/C [5] 82.4% | viability, T/C [6] 63.2% | viability, T/C [7] 106% | viability, T/C [8] 102% | viability, T/C [9] 101% | viability, T/C [10] 94.9% | viability, T/C [11] 75.1% | viability, T/C [12] 69.2% | viability, T/C [13] 103% | viability, T/C [14] 99.1% | viability, T/C [15] 97.8% | viability, T/C [16] 88.8% | viability, T/C [17] 86.6% | viability, T/C [18] 66.1% | viability, T/C [19] 99.2% | viability, T/C [20] 94.6% | viability, T/C [21] 96.4% | viability, T/C [22] 88% | viability, T/C [23] 82.5% | viability, T/C [24] 62.7% | viability, T/C [25] 92.3% | viability, T/C [26] 84.9% | viability, T/C [27] 94.8% | viability, T/C [28] 81.2% | viability, T/C [29] 81.6% | viability, T/C [30] 59.6% | viability, T/C [31] 70.8% | viability, T/C [32] 76.8% | viability, T/C [33] 77.5% | viability, T/C [34] 78% | viability, T/C [35] 69.8% | viability, T/C [36] 61.4%

COc1cc(C2c3cc4c(cc3C(OC3OC5COC(C)OC5C(O)C3O)C3COC(=O)C23)OCO4)cc(OC)c1O (stereo unspecified) + Cc1cnc(CNC(=O)c2c(=O)c3ccc(N4CCCN(C)CC4)nc3n3c2sc2ccccc23)cn1
331 nM: IC50 (second compound 0.0316 µM)
104 nM: IC50 (second compound 0.1 µM)
inactive: viability, T/C [1] 66.6% | viability, T/C [2] 52.2% | viability, T/C [3] 43.6% | viability, T/C [4] 47% | viability, T/C [5] 43.6% | viability, T/C [6] 22.9% | viability, T/C [7] 54.1% | viability, T/C [8] 49.4% | viability, T/C [9] 44.5% | viability, T/C [10] 38.2% | viability, T/C [11] 36.2% | viability, T/C [12] 18.4% | viability, T/C [13] 27.8% | viability, T/C [14] 31.1% | viability, T/C [15] 24.8% | viability, T/C [16] 22.8% | viability, T/C [17] 13.7%
< 31.6 nM: IC50 (second compound 0.316 µM) | IC50 (second compound 1 µM) | IC50 (second compound 3.16 µM) | IC50 (second compound 10 µM)
active: viability, T/C [18] 6.56% | viability, T/C [19] 5.71% | viability, T/C [20] 6.22% | viability, T/C [21] 5.39% | viability, T/C [22] 5.9% | viability, T/C [23] 4.83% | viability, T/C [24] 3.18% | viability, T/C [25] 3.86% | viability, T/C [26] 2.65% | viability, T/C [27] 2.29% | viability, T/C [28] 2.54% | viability, T/C [29] 2.32% | viability, T/C [30] 1.47% | viability, T/C [31] 1.65% | viability, T/C [32] 1.68% | viability, T/C [33] 1.55% | viability, T/C [34] 2.21% | viability, T/C [35] 0.74% | viability, T/C [36] 0.21%
